Drawing on patent US9751881B2, “Inhibitors of the renal outer medullary potassium channel” (Merck Sharp & Dohme Corp., priority 2013, dated 2017), this text covers IC50 for 26 compounds.

Where a name gives a salt, the structure may show the parent alone.

hROMK (hKir1.1), sequence (P48048 whole entry): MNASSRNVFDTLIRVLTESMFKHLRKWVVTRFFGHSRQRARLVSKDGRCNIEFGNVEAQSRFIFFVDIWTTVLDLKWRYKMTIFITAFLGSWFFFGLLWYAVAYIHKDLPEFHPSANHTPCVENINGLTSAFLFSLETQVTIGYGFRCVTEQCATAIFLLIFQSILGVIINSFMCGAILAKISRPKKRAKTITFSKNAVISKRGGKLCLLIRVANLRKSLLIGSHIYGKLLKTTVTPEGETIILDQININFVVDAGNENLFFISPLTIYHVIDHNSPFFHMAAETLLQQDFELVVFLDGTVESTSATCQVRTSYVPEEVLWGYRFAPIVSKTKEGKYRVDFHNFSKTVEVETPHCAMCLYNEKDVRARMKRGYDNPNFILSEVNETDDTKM

This assay addresses hROMK (hKir1.1) (Homo sapiens (Human), UniProt P48048). The assay is described as follows: Thallium Flux Assay (ROMK channel functional thallium flux, FLIPR-Tetra). The format is cell-based. As to conditions: HEK293 cells stably expressing hROMK (hKir1.1); unit not given in Table 4 (IC50 potencies less than 1 μM); read-out: ROMK TI IC50. Summed up:
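HEK293 cells stably expressing hROMK, FluxOR dye-loaded 90 min, then compound 30 min at room temperature. Normalised to 3 μM reference ROMK inhibitor as % fluorescence change.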
For the compound `Cc1c([C@@H](O)CN2CCC3(CC2)CCN(c2cncc(C#N)c2)C3)ccc2c1COC2=O` [Example 12, (R)-5-(8-(2-Hydroxy-2-(4-methyl-1-oxo-1,3-dihydroisobenzofuran-5-yl)ethyl)-2,8-diazaspiro[4.5]decan-2-yl)nicotinonitrile], the IC50 is 33 nM.

As to `COc1cc(N2CC3(CCN(C[C@H](O)c4ccc5c(c4C)COC5=O)CC3)CC2=O)ncc1C#N` [Example 59, (R)-6-(8-(2-Hydroxy-2-(4-methyl-1-oxo-1,3-dihydroisobenzofuran-5-yl)ethyl)-3-oxo-2,8-diazaspiro[4.5]decan-2-yl)-4-methoxynicotinonitrile], the IC50 amounted to 32.9 nM.

As to `Cc1cc2c(cc1C(O)CN1CCC3(CC1)CCN(c1ccc(C#N)cn1)C3)COC2=O` (single isomer, unassigned) [Example 24A, 6-(8-(2-Hydroxy-2-(6-methyl-1-oxo-1,3-dihydroisobenzofuran-5-yl)ethyl)-2,8-diazaspiro[4.5]decan-2-yl)nicotinonitrile], the IC50 is 17.6 nM.

Turning to `Cc1c([C@@H](O)CN2CCC3(CC2)CCN(c2ccc(C#N)cn2)C3=O)ccc2c1COC2=O` [Example 5, 6-{8-[(2R)-2-hydroxy-2-(4-methyl-1-oxo-1,3-dihydro-2-benzofuran-5-yl)ethyl]-1-oxo-2,8-diazaspiro[4.5]dec-2-yl}pyridine-3-carbonitrile], the IC50 amounted to 37 nM.

As to `COc1cc(N2CC3(CCN(C[C@H](O)c4ccc5c(c4C)COC5=O)CC3)OCC2=O)ncc1C#N` [Example 102, (R)-6-(9-(2-Hydroxy-2-(4-methyl-1-oxo-1,3-dihydroisobenzofuran-5-yl)ethyl)-3-oxo-1-oxa-4,9-diazaspiro[5.5]undecan-4-yl)-4-methoxynicotinonitrile], the half-maximal inhibitory concentration (IC50) turned out to be 16.7 nM.

As to `CCS(=O)(=O)c1cnc(N2CC3(CCN(C[C@H](O)c4ccc5c(c4C)COC5=O)CC3)OC2=O)cn1` [Example 93, (R)-3-(5-(Ethylsulfonyl)pyrazin-2-yl)-8-(2-hydroxy-2-(4-methyl-1-oxo-1,3-dihydroisobenzofuran-5-yl)ethyl)-1-oxa-3,8-diazaspiro[4.5]decan-2-one], the half-maximal inhibitory concentration (IC50) is 148 nM.

On to `Cc1cc2c(cc1C(O)CN1CCC3(CC1)CCN(c1ccc(C#N)cn1)C3)COC2=O` (single isomer, unassigned) [Example 24B, 6-(8-(2-Hydroxy-2-(6-methyl-1-oxo-1,3-dihydroisobenzofuran-5-yl)ethyl)-2,8-diazaspiro[4.5]decan-2-yl)nicotinonitrile], for which the IC50 turned out to be 31.4 nM.

Take `Cc1c([C@@H](O)CN2CCC3(CC2)CCN(c2ncc(S(C)(=O)=O)cn2)C3)ccc2c1COC2=O` [Example 41, (R)-5-(1-Hydroxy-2-(2-(5-(methylsulfonyl)pyrimidin-2-yl)-2,8-diazaspiro[4.5]decan-8-yl)ethyl)-4-methylisobenzofuran-1(3H)-one]: the IC50 came out at 101 nM.

As to `Cc1c([C@@H](O)CN2CCC3(CC2)CC(=O)N(c2nnc(S(C)(=O)=O)s2)C3)ccc2c1COC2=O` [Example 71, 8-[(2R)-2-Hydroxy-2-(4-methyl-1-oxo-1,3-dihydro-2-benzofuran-5-yl)ethyl]-2-[5-(methylsulfonyl)-1,3,4-thiadiazol-2-yl]-2,8-diazaspiro[4.5]decan-3-one hydrochloride], the IC50 was determined as 142 nM.

With `Cc1c([C@@H](O)CN2CCC3(CCN(c4ccc(S(C)(=O)=O)cn4)CC3)C2)ccc2c1COC2=O` [Example 64, 5-[(1R)-1-Hydroxy-2-{8-[5-(methylsulfonyl)pyridin-2-yl]-2,8-diazaspiro[4.5]dec-2-yl}ethyl]-4-methyl-2-benzofuran-1(3H)-one hydrochloride], the IC50 worked out at 272 nM.

In the case of `Cc1c([C@@H](O)CN2CCC3(CC2)CCN(c2ncc(S(C)(=O)=O)s2)C3)ccc2c1COC2=O` [Example 38, (R)-5-(1-Hydroxy-2-(2-(5-(methylsulfonyl)thiazol-2-yl)-2,8-diazaspiro[4.5]decan-8-yl)ethyl)-4-methylisobenzofuran-1(3H)-one], the IC50 was 60 nM.

As for `Cc1c([C@@H](O)CN2CCC3(CC2)CC(=O)N(c2cnc(S(C)(=O)=O)cn2)C3)ccc2c1COC2=O` [Example 35, (R)-8-(2Hydroxy-2-(4-methyl-1-oxo-1,3-dihydroisobenzofuran-5-yl)ethyl)-2-(5-(methylsulfonyl)pyrazin-2-yl)-2,8-diazaspiro[4.5]decan-3-one], the IC50 stood at 74.2 nM.

As to `COc1cc(C#N)ccc1N1CCC2(CCN(C[C@H](O)c3ccc4c(c3C)COC4=O)CC2)C1` [Example 86], the IC50 came out at 50.4 nM.

Take `Cc1c([C@@H](O)CN2CCC3(CCN(c4cnc(S(C)(=O)=O)cn4)CC3)C2)ccc2c1COC2=O` [Example 65, 5-[(1R)-1-Hydroxy-2-{8-[5-(methylsulfonyl)pyrazin-2-yl]-2,8-diazaspiro[4.5]dec-2-yl}ethyl]-4-methyl-2-benzofuran-1(3H)-one hydrochloride]: the IC50 turned out to be 99.8 nM.

`COc1ccc(C#N)cc1N1CCC2(CCN(C[C@H](O)c3ccc4c(c3C)COC4=O)CC2)C1` [Example 85]: the IC50 amounted to 234 nM.

Consider `Cc1c([C@@H](O)CN2CCC3(CC2)CC(=O)N(c2ccc(C#N)cc2)C3)ccc2c1COC2=O` [Example 14, (R)-4-(8-(2-Hydroxy-2-(4-methyl-1-oxo-1,3-dihydroisobenzofuran-5-yl)ethyl)-3-oxo-2,8-diazaspiro[4.5]decan-2-yl)benzonitrile], for which the IC50 was determined as 15 nM.

For `N#Cc1ccc(N2CCC3(CCN(CC(O)c4cc5c(cc4C4CC4)C(=O)OC5)CC3)C2)nc1` (centres unmarked) [Example 25, 6-(8-(2-(6-Cyclopropyl-1-oxo-1,3-dihydroisobenzofuran-5-yl)-2-hydroxyethyl)-2,8-diazaspiro[4.5]decan-2-yl)nicotinonitrile], the half-inhibitory concentration (IC50) worked out at 74.4 nM.

Consider `Cc1c([C@@H](O)CN2CCC3(CC2)CC(=O)N(c2ccc(S(C)(=O)=O)cc2)C3)ccc2c1COC2=O` [Example 74, 8-[(2R)-2-Hydroxy-2-(4-methyl-1-oxo-1,3-dihydro-2-benzofuran-5-yl)ethyl]-2-[4-(methylsulfonyl)phenyl]-2,8-diazaspiro[4.5]decan-3-one hydrochloride], for which the IC50 stood at 82.2 nM.

For the compound `CC1Cc2cc(C(O)CN3CCC4(CC3)CCN(c3ccc(C#N)cn3)C4)ccc2C(=O)O1` [Example 21, 6-(8-(2-Hydroxy-2-((R)-3-methyl-1-oxoisochroman-6-yl)ethyl)-2,8-diazaspiro[4.5]decan-2-yl)nicotinonitrile], the IC50 was 50.1 nM.

Consider `Cc1c([C@@H](N)CN2CCC3(CC2)CCN(c2ccc(C#N)cn2)C3)ccc2c1COC2=O` [Example 79, (R)-6-(8-(2-amino-2-(4-methyl-1-oxo-1,3-dihydroisobenzofuran-5-yl)ethyl)-2,8-diazaspiro[4.5]decan-2-yl)nicotinonitrile], for which the IC50 is 14.1 nM.

As for `Cc1c([C@@H](O)CN2CCC3(CC2)CC(=O)N(c2ccc(C#N)cn2)C3)ccc2c1COC2=O` [Example 1, (R)-6-(8-(2-hydroxy-2-(4-methyl-1-oxo-1,3-dihydroisobenzofuran-5-yl)ethyl)-3-oxo-2,8-diazaspiro[4.5]decan-2-yl)nicotinonitrile], the 50% inhibitory concentration (IC50) was 10.5 nM.

In the case of `Cc1c([C@@H](O)CN2CCC3(CC2)CN(c2ccc(S(C)(=O)=O)nc2)CCO3)ccc2c1COC2=O` [Example 99, (R)-5-(1-Hydroxy-2-(4-(6-(methylsulfonyl)pyridin-3-yl)-1-oxa-4,9-diazaspiro[5.5]undecan-9-yl)ethyl)-4-methylisobenzofuran-1(3H)-one], the IC50 was found to be 168 nM.

Regarding `Cc1c([C@@H](O)CN2CCC3(CC2)CCN(c2ccnc(-c4ccoc4)n2)C3=O)ccc2c1COC2=O` [Example 115, (R)-2-(2-(furan-3-yl)pyrimidin-4-yl)-8-(2-hydroxy-2-(4-methyl-1-oxo-1,3-dihydroisobenzofuran-5-yl)ethyl)-2,8-diazaspiro[4.5]decan-1-one], the IC50 turned out to be 286 nM.

With `Cc1c([C@@H](O)CN2CCC3(CC2)CC(=O)N(c2ccc(S(C)(=O)=O)cn2)C3)ccc2c1COC2=O` [Example 34, (R)-8-(2-Hydroxy-2-(4-methyl-1-oxo-1,3-dihydroisobenzofuran-5-yl)ethyl)-2-(5-(methylsulfonyl)pyridin-2-yl)-2,8-diazaspiro[4.5]decan-3-one], the IC50 amounted to 53.4 nM.

Take `Cc1c([C@@H](O)CN2CCC3(CC2)CCN(c2ncc(C#N)s2)C3)ccc2c1COC2=O` [Example 90]: the IC50 is 6.7 nM.

Turning to `Cc1c([C@@H](O)CN2CCC3(CCN(c4ccc(C#N)cn4)CC3)C2)ccc2c1COC2=O` [Example 53, (R)-6-(2-(2-Hydroxy-2-(4-methyl-1-oxo-1,3-dihydroisobenzofuran-5-yl)ethyl)-2,8-diazaspiro[4.5]decan-8-yl)nicotinonitrile], the IC50 came out at 19 nM.

By IC50 is commonly meant the concentration that gives 50% inhibition.
